Values joined by “and” are separate entries in the source; they are usually repeats but may differ in a detail not shown here. Equal entries are not always repeated.
Tests used:
[1] = biological target: T1, BVDV (NADL) RNA-dependent RNA polymerase (RdRp) (Bovine viral diarrhea virus, UniProt P19711); settings: reference compounds; cited from earlier work
T1 construct: BVDV (NADL) RNA-dependent RNA polymerase (RdRp) was expressed and purified; made in house

[2] = test system: panel of unrelated RNA and DNA viruses; experiment: Activity against a panel of unrelated RNA and DNA viruses; format: cell-based; settings: data not shown
[3] = Cytotoxicity assay, proliferation of exponentially growing MDBK cells (MTS/PMS); format: cell-based, bovine; settings: bovine
Description: (§1) Assays were carried out, as described previously.

[4] = test system: BVDV-1 (strain NADL); experiment: microbe, parasite or virus in culture; format: cell-based, bovine viral diarrhea virus (BVDV); settings: Bovine viral diarrhea virus isolates and strains; RT-qPCR, MDBK cells
[5] = test system: classical swine fever virus (CSFV); format: cell-based
[6] = test system: BVDV NADL virus; experiment: CPE-based antiviral assay, BVDV NADL in MDBK cells (MTS/PMS); settings: for S.I.: selectivity index, CC50 vs EC50; for fold increase: sheet CSFCII#, potency relative to TO502-2403 (EC50 0.2 µM)
[7] = biological target: BVDV WT replication complexes (Bovine viral diarrhea virus, UniProt P19711); experiment: Replication complex (RC) assay, wild-type BVDV; format: biochemical; settings: for effect on activity of BVDV WT replication complexes: RCs isolated 14 h post-infection
Chain of BVDV WT replication complexes (P19711 3270-3988, one chain of several): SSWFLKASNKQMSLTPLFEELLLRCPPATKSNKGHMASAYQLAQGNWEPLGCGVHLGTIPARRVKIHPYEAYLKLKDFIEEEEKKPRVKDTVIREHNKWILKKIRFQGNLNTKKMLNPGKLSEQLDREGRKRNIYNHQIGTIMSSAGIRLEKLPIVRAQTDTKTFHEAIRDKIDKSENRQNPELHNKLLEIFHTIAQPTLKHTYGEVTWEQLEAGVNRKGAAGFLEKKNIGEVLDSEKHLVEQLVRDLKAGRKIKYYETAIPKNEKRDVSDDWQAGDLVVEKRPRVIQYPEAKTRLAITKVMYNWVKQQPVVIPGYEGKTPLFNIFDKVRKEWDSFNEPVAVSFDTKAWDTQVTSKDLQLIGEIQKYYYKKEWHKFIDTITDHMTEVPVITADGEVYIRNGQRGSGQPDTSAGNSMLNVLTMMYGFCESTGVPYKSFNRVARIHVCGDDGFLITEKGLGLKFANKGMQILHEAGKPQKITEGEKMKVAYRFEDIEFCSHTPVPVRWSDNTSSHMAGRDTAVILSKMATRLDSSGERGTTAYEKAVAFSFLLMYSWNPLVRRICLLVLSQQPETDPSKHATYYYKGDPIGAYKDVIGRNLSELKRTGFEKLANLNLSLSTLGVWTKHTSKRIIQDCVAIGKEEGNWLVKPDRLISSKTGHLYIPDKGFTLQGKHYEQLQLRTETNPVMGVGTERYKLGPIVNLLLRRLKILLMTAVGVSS
Description: (§2) The replication complex (RC) assay is similar to the one described before. In brief, BVDV-infected MDBK cells were suspended in an ice-cold hypotonic buffer A (10 mM Tris, 10 mM NaCl pH 7.8) and were further disrupted by 50 strokes with a Dounce homogenizer. The disrupted cells were pelleted by centrifugation at 1,000× g for 5 min at 4 °C. The supernatant fraction, containing cytoplasmic material and plasma membranes, was concentrated by high-speed centrifugation at 200,000× g for 20 min at 4 °C. The pellet was resuspended in 120 µL of hypotonic buffer B (10 mM Tris, 10 mM NaCl pH 7.8 and 15% glycerol) and used for an RNA polymerase assay. Replicase reactions were carried out, as described before, with some modifications. The [α-^33P]UTP (3,000 mCi/mmol) was replaced by [α-^33P]CTP (3,000 mCi/mmol). The following incubation, RNA extraction, RNA analysis, and quantification were performed, as previously described.

[8] = test system: hepatitis C virus; experiment: In vitro activity against hepatitis C virus; format: cell-based
[9] = biological target: T1, BVDV (NADL) RNA-dependent RNA polymerase (RdRp); experiment: RNA-dependent RNA polymerase assay, poly(C) template; format: biochemical; settings: purified RdRp, up to 500 µM
Description: BVDV (NADL) RNA-dependent RNA polymerase (RdRp) was expressed and purified, as described before. […] In brief, the purified BVDV polymerase (100 nM) was mixed with 100 µM GTP (containing 8.3 µM of [^3H]GTP, Perkin Elmer) and increasing concentration of the inhibitor (0.2 µM, 0.7 µM, 2 µM, 6 µM, 19 µM, 56 µM, 165 µM or 500 µM) in 50 mM Hepes pH 8.0, 10 mM KCl, 10 mM DTT, 1 mM MgCl2, 2mM MnCl2, and 0.5% igepal (Sigma). The enzyme mix and inhibitors were pre-incubated, in order to favor enzyme-inhibitor interactions before RNA binding. Reactions were started by the addition of 100 nM of poly(C) (about 500 nt in size) template. Reactions were incubated at 30 °C and stopped by addition of 50 mM EDTA. Samples were transferred onto DE-81 filters, washed with 0.3 M ammonium formate solution, and dried. Radioactivity bound to the filter was determined by liquid scintillation counting.

[10] = test system: RCs from MDBK cells infected with the TO505-6180res virus; experiment: Replication complex (RC) assay, TO505-6180res BVDV; format: biochemical, bovine viral diarrhea virus (BVDV); settings: RCs from TO505-6180res infected MDBK cells
Description: as §2

[11] = test system: MDBK cells; experiment: Cytotoxicity assay, proliferation of exponentially growing MDBK cells (MTS/PMS); format: cell-based, bovine; settings: 5 days
Description: as §1

[12] = Bovine viral diarrhea virus isolates and strains, MDBK, 72 h
[13] = protection against BVDV (NADL, wild type)-induced CPE in MDBK cells, 3 days

T1 sequence (P19711 3270-3988): as the sequence (P19711 3270-3988, one chain of several) above

Molecule: CCOC(=O)c1cc2ccn3c(c-2n1)N=C(C)C3 [AG110, ethyl 2-methylimidazo[1,2-a]pyrrolo[2,3-c]pyridin-8-carboxylate]
- inhibitory effect on the highly purified BVDV RdRp [1]: none of these compounds had any inhibitory effect

Molecule: Brc1ccc(Cn2ccc3nc(-c4ccccc4)nc-3c2)cc1 [BPIP, 5-[(4-bromophenyl)methyl]-2-phenyl-5H-imidazo[4,5-c]pyridine]
- inhibitory effect on the highly purified BVDV RdRp [1]: none of these compounds had any inhibitory effect

Molecule: Nc1nc2c(cnn2CCCc2ccc3c(c2)OCO3)c2nc(-c3ccco3)nn12 [LZ37, 7-[3-(1,3-benzodioxol-5-yl)propyl]-2-(2-furyl)-7H-pyrazolo[4,3-e][1,2, 4]triazolo[1,5-c]pyrimidin-5-amine]
- inhibitory effect on the highly purified BVDV RdRp [1]: none of these compounds had any inhibitory effect

Molecule: O=C(Nc1ccn(-c2ccccc2)n1)c1cc(-c2ccccc2)nc2ccccc12 [TO502-2403, 2-phenyl-N-(1-phenyl-1H-pyrazol-3-yl)-4-Quinolinecarboxamide]
- activity against a panel of unrelated RNA and DNA viruses [2]: inactive
- CC50 at 5 days [3]: > 100000 nM
- EC50 [4]: 60 nM and 50 nM
- inhibition of in vitro CSFV replication [5]: inhibited
- EC50 [6, 12]: 200 nM
- effect on activity of BVDV WT replication complexes [7]: inhibited the activity of the BVDV WT replication complexes in a dose-dependent manner
- inhibition at 10 µM ([7]; at 10 µM, read-out: maximum inhibition of BVDV WT replication complex activity): ~90%
- in vitro activity against hepatitis C virus [8]: inactive
- effect on the activity of the viral polymerase [9]: no effect

Molecule: Cc1ccc2nc(NC(=O)c3cc(-c4ccco4)nc4ccccc34)sc2c1 [TO505-6180, 2-(2-furanyl)-N-(6-methyl-2-benzothiazolyl)-4-Quinolinecarboxamide]
- activity against a panel of unrelated RNA and DNA viruses [2]: inactive
- fold less susceptible than BVDV wt RCs [10]: 3 to 4 fold
- CC50 at 5 days [3]: > 100000 nM
- EC50 [4]: 30 nM and 60 nM
- inhibition of in vitro CSFV replication [5]: inhibited
- EC50 [6, 12]: 70 nM
- effect on activity of BVDV WT replication complexes [7]: inhibited the activity of the BVDV wt RCs in a dose-dependent manner
- in vitro activity against hepatitis C virus [8]: inactive
- effect on the activity of the viral polymerase [9]: no effect

Molecule: Cc1cc(nn1)NC(=O)c3cc(nc2ccccc23)c4ccccc4 [CSFC-20]
- CC50 [11]: > 100000 nM
- S.I. [6]: 1
- fold increase [6]: 0.002

Molecule: Cc1cccc2sc(nc12)NC(=O)c4cc(nc3ccccc34)c5cccn5 [CSFC-59]
- CC50 [11]: > 100000 nM
- EC50 [6, 13]: 54000 nM
- S.I. [6]: 2
- fold increase [6]: 0.0037

Molecule: O=C(Nc2cc(c1ccccc1)nn2)c4cc(nc3ccc(F)cc34)c5cccs5 [CSFC-124]
- CC50 [11]: > 100000 nM
- EC50 [6, 13]: 22000 nM
- S.I. [6]: 5
- fold increase [6]: 0.00909

Source: article PMC7144022, “Quinolinecarboxamides Inhibit the Replication of the Bovine Viral Diarrhea Virus by Targeting a Hot Spot for the Inhibition of Pestivirus Replication in the RNA-Dependent RNA Polymerase” (Molecules, 2020)
